According to US20250313527A1, “AMPHIPHILIC LIPID INCLUDING TERTIARY AMINE N-OXIDE GROUP, LIPOSOMAL DRUG-DELIVERY SYSTEM, AND USE OF AMPHIPHILIC LIPID” (HANGZHOU TITO BIOTECHNOLOGY PARTNERSHIP ENTERPRISE (LIMITED …, priority 2022, published 2025):

Experiment: Plasma clearance and tissue distribution (in vivo imaging of DiR fluorescence)
Settings: HepG2 tumor-bearing BALB/c nude mice, intravenous injection, FIG. 12 to FIG. 13
Procedure: Female BALB/c nude mice bearing HepG2 subcutaneous tumors (about 70 mm^3) were randomly divided into three groups with 3 mice in each group, and intravenously injected with DiR, ^DiRODML, or ^DiRODEL. 24 h later, blood was collected from the orbital veins of mice. 500 μL of a blood sample was taken and tested by a small animal in vivo imaging instrument for a fluorescence intensity. Mice were dissected, and tissues such as a heart, a liver, a spleen, a lung, a kidney, an intestine, and a tumor were collected. Each tissue was detected by a small animal in vivo imaging instrument for a fluorescence intensity.

Compound: CCCCCCCCCCCCCCCCCCN1/C(=C/C=C/C=C/C=C/C2=[N+](CCCCCCCCCCCCCCCCCC)c3ccccc3C2(C)C)C(C)(C)c2ccccc21.[I-] [DiR]
- DiR fluorescence signal in the blood or tissues: Almost no fluorescence signal
